In patent publication US20060069132A1, “Azolecarboxamide herbicides” (priority 2004, published 2006):

How the values were obtained:
wheat = assay: Test B postemergence herbicide test; type: in vivo, Triticum aestivum; parameters: key to Wheat plant response rating: 0 = no effect, 100 = complete control; settings: postemergence
Summary of the method: (§1)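 Scale 0–100: zero equals no visible effect, 100 complete control, judged by eye relative to controls. Timing: 13 to 15 days in greenhouse post-treatment. Growth stage at spraying: two leaves (paddy) or one to four leaves, 2–18 cm (postemergence).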

blackgrass = assay: Test B postemergence herbicide test; type: in vivo, Alopecurus myosuroides; settings: postemergence
Summary of the method: (§2)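 Read-out: visual comparison with controls, scored 0 to 100, where 100 means complete control and 0 no effect. Formulated chemicals were applied postemergence to plants 2–18 cm tall (1- to 4-leaf), or to flooded-paddy plants at the 2-leaf stage, then held 13 to 15 days under glass.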

corn = assay: Test B pre-/postemergence herbicide test; type: in vivo, Zea mays; settings: for Corn plant response rating: postemergence
Summary of the method: (§3)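 Evaluation is visual, comparing treated with control plants on a scale where 0 means no effect and 100 means full control. Treatments were preemergence, or postemergence on seedlings 2–18 cm tall, and held 13–15 days in the greenhouse.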

wild oat = assay: Test B postemergence herbicide test; type: in vivo, Avena fatua; settings: postemergence
Summary of the method: as §1

morningglory = assay: Test B pre-/postemergence herbicide test; type: in vivo, Ipomoea coccinea; settings: for Morningglory plant response rating: postemergence
Summary of the method: (§4)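 Pre: seeds sown, then sprayed. Post: 1–4-leaf plants (2–18 cm) sprayed at the same time. Paddy: flooded, treated at 2-leaf stage. Formulation: non-phytotoxic solvent with surfactant. Greenhouse 13–15 days; visual 0–100 score relative to controls.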

cocklebur = assay: Test B pre-/postemergence herbicide test; type: in vivo, Xanthium strumarium; settings: for Cocklebur plant response rating: postemergence
Summary of the method: as §4

giant foxtail = assay: Test B pre-/postemergence herbicide test; type: in vivo, Setaria faberi; settings: for Foxtail, Giant plant response rating: postemergence
Summary of the method: as §3

large crabgrass = assay: Test B pre-/postemergence herbicide test; type: in vivo, Digitaria sanguinalis; settings: for Crabgrass, Large plant response rating: postemergence
Summary of the method: as §3

lambsquarters = assay: Test B pre-/postemergence herbicide test; type: in vivo, Chenopodium album; settings: for Lambsquarters plant response rating: postemergence
Summary of the method: as §3

pigweed = assay: Test B pre-/postemergence herbicide test; type: in vivo, Amaranthus retroflexus; settings: for Pigweed plant response rating: postemergence
Summary of the method: as §3

rice = assay: Test B flooded paddy test; type: in vivo, Oryza sativa; settings: 1000 g ai/ha, scale 0 to 100 (0 no effect, 100 complete control)
Summary of the method: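 Each value is a visual 0–100 response rating taken against controls 13 to 15 days after treatment in the greenhouse. Plants received formulated chemical postemergence at the 1- to 4-leaf stage or, in flooded paddy, at the 2-leaf stage.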

ducksalad = assay: Test B flooded paddy test; type: in vivo, Heteranthera limosa; settings: 1000 g ai/ha, scale 0 to 100 (0 no effect, 100 complete control)
Summary of the method: as §2

[1] = tested on: small flower umbrella sedge; assay: Test B flooded paddy test; type: in vivo, Cyperus difformis; settings: 1000 g ai/ha, scale 0 to 100 (0 no effect, 100 complete control)
Summary of the method: as §2

Surinam grass = assay: Test B pre-/postemergence herbicide test; type: in vivo, Urochloa decumbens; settings: for Surinam Grass plant response rating: postemergence
Summary of the method: as §3

barnyardgrass [2] = assay: Test B pre-/postemergence herbicide test; type: in vivo, Echinochloa crus-galli; settings: for Barnyardgrass plant response rating: postemergence
Summary of the method: as §4

barnyardgrass [3] = assay: Test B flooded paddy test; type: in vivo, Echinochloa crus-galli; settings: 1000 g ai/ha, scale 0 to 100 (0 no effect, 100 complete control)
Summary of the method: as §2

[4] = 125 g ai/ha, visual rating, scale 0 (no effect) to 100 (complete control)
[5] = 500 g ai/ha, scale 0 to 100, 0 is no effect, 100 is complete control
[6] = 125 g ai/ha, 0 = no effect, 100 = complete control, preemergence
[7] = 500 g ai/ha, visual rating, 0 = no effect, 100 = complete control, preemergence

## CCn1nc(C2(C)CC2)cc1C(=O)Nc1cc(C(=O)N(C)C)ccc1F [Compound 299]
wheat; [4]
  Wheat plant response rating: 20
wheat; [5]
  Wheat plant response rating: 30
blackgrass; [4]
  Blackgrass plant response rating: 20
blackgrass; [5]
  Blackgrass plant response rating: 50
corn; [6]
  Corn plant response rating (0 to 100 scale): 50
corn; [4]
  Corn plant response rating: 0
corn; [7]
  Plant response rating, Corn: 90
corn; [5]
  Corn plant response rating: 20
Wild oat; [4]
  Oat, Wild plant response rating: 20
Wild oat; [5]
  Oat, Wild plant response rating: 40
morningglory; [6]
  Morningglory plant response rating (0 to 100 scale): 40
morningglory; [4]
  Morningglory plant response rating: 70
morningglory; [7]
  Plant response rating, Morningglory: 100
morningglory; [5]
  Morningglory plant response rating: 80
cocklebur; [6]
  Cocklebur plant response rating (0 to 100 scale): 20
cocklebur; [4]
  Cocklebur plant response rating: 20
cocklebur; [7]
  Plant response rating, Cocklebur: 60
cocklebur; [5]
  Cocklebur plant response rating: 70
Giant foxtail; [6]
  Foxtail, Giant plant response rating (0 to 100 scale): 100
Giant foxtail; [4]
  Foxtail, Giant plant response rating: 10
Giant foxtail; [7]
  Plant response rating, Foxtail, Giant: 100
Giant foxtail; [5]
  Foxtail, Giant plant response rating: 80
Large crabgrass; [6]
  Crabgrass, Large plant response rating (0 to 100 scale): 100
Large crabgrass; [4]
  Crabgrass, Large plant response rating: 10
Large crabgrass; [7]
  Plant response rating, Crabgrass, Large: 100
Large crabgrass; [5]
  Crabgrass, Large plant response rating: 90
lambsquarters; [6]
  Lambsquarters plant response rating (0 to 100 scale): 100
lambsquarters; [4]
  Lambsquarters plant response rating: 40
lambsquarters; [7]
  Plant response rating, Lambsquarters: 100
lambsquarters; [5]
  Lambsquarters plant response rating: 100
pigweed; [6]
  Pigweed plant response rating (0 to 100 scale): 100
pigweed; [4]
  Pigweed plant response rating: 90
pigweed; [7]
  Plant response rating, Pigweed: 100
pigweed; [5]
  Pigweed plant response rating: 100
rice
  Rice plant response rating: 90
ducksalad
  Ducksalad plant response rating: 90
[1]
  Sedge, Umbrella plant response rating: 90
Surinam grass; [6]
  Surinam Grass plant response rating (0 to 100 scale): 100
Surinam grass; [4]
  Surinam Grass plant response rating: 20
Surinam grass; [7]
  Plant response rating, Surinam Grass: 100
Surinam grass; [5]
  Surinam Grass plant response rating: 80
Barnyardgrass [2]; [6]
  Barnyardgrass plant response rating (0 to 100 scale): 90
Barnyardgrass [2]; [4]
  Barnyardgrass plant response rating: 10
Barnyardgrass [2]; [7]
  Plant response rating, Barnyardgrass: 100
Barnyardgrass [2]; [5]
  Barnyardgrass plant response rating: 90
Barnyardgrass [3]
  Barnyardgrass plant response rating: 90
